These compounds were tested on Human monocyte cell line THP-1 (assay: Detection of THP-1 cell pyroptosis (Caspase-Glo 1 Inflammasome Assay)). Settings: Homo sapiens, THP-1, THP-1 pyroptosis, 20 nM PMA 48 h, 1 μg/mL LPS, compound 3 h.
Format: cell-based
Outline: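 Differentiated with 20 nM PMA for 48 h (50,000 cells/well), then given serum-free medium with 1 μg/mL LPS and compound in a 10-point, 3-fold series from 10 μM for 3 h at 37 °C. Caspase-1 activity read with Caspase-Glo 1 Inflammasome kit; IC50 calculated.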

| SMILES | IC50 |
| --- | --- |
| COc1cc(-c2cc(F)cc(C(C)C3CC3)c2NC(=O)NS(=O)(=O)c2cc(C(C)(C)O)co2)ccn1 (centres unmarked) [Compound 4, N-((2-(1-cyclopropylethyl)-4-fluoro-6-(2-methoxypyridin-4-yl)phenyl)carbamoyl)-4-(2-hydroxypropan-2-yl)furan-2-sulfonamide] | 100 to 500 nM |
| C[C@@H](c1ccc2c(c1NC(=O)NS(=O)(=O)c1cc(C(C)(C)O)co1)CC2)C1CC1 [Compound 37, (R)-N-((3-(1-cyclopropylethyl)bicyclo[4.2.0]octa-1(6),2,4-trien-2-yl)carbamoyl)-4-(2-hydroxypropan-2-yl)furan-2-sulfonamide] | 100 to 500 nM |
| C[C@H](c1ccc2c(c1NC(=O)NS(=O)(=O)c1cc(C3(O)CC3)co1)CCC2)C1CC1 [Compound 60, (S)-N-((5-(1-cyclopropylethyl)-2,3-dihydro-1H-inden-4-yl)carbamoyl)-4-(1-hydroxycyclopropyl)furan-2-sulfonamide] | 100 to 500 nM |
| C[C@@H](c1cc(C#N)c2c(c1NC(=O)NS(=O)(=O)c1cc(C(C)(C)O)co1)CCC2)C1CC1 [Compound 45, (R)-N-((7-cyano-5-(1-cyclopropylethyl)-2,3-dihydro-1H-inden-4-yl)carbamoyl)-4-(2-hydroxypropan-2-yl)furan-2-sulfonamide] | 100 to 500 nM |
| C[C@H](c1ccc2c(c1NC(=O)NS(=O)(=O)c1sc(C(C)(C)O)cc1C#N)CCC2)C1CC1 [Compound 63, (S)-3-cyano-N-((5-(1-cyclopropylethyl)-2,3-dihydro-1H-inden-4-yl)carbamoyl)-5-(2-hydroxypropan-2-yl)thiophene-2-sulfonamide] | 100 to 500 nM |

Same assay, conditions: THP-1 pyroptosis, 20 nM PMA 48 h, 1 μg/mL LPS, compound 3 h

| SMILES | IC50 |
| --- | --- |
| Cc1ccc(S(=N)(=O)NC(=O)Nc2c(C(C)C)cccc2C(C)C)cc1 (centres unmarked) [Compound 92-1, RS- and SS-N-((2,6-diisopropylphenyl)carbamoyl)-4-methylbenzenesulfonimidamide, reference compound] | > 10000 nM |
| CC(C)c1cccc(C(C)C2CC2)c1NC(=O)NS(=N)(=O)c1cc(C(C)(C)O)co1 (racemic) [Compound 74-1, (RS, RC)- and (SS, RC)-N-((2-(1-cyclopropylethyl)-6-isopropylphenyl)carbamoyl)-4-(2-hydroxypropan-2-yl)furan-2-sulfonimidamide] | ≤ 100 nM |
| CC(c1cc(C#N)c2c(c1NC(=O)NS(=N)(=O)c1cc(C(C)(C)O)co1)CCC2)C1CC1 (racemic) [Compound 46-1, (RS, RC)- and (SS, RC)-N-((7-cyano-5-(1-cyclopropylethyl)-2,3-dihydro-1H-inden-4-yl)carbamoyl)-4-(2-hydroxypropan-2-yl)furan-2-sulfonimidamide] | 100 to 500 nM |
| CC(c1ccc2c(c1NC(=O)NS(=N)(=O)c1cc(C(C)(C)O)co1)CCC2)C1CC1 (racemic) [Compound 52-1, (RS, SC)- and (SS, SC)-N-((5-(1-cyclopropylethyl)-2,3-dihydro-1H-inden-4-yl)carbamoyl)-4-(2-hydroxypropan-2-yl)furan-2-sulfonimidamide] | 1000 to 5000 nM |
| CC(c1ccc2c(c1NC(=O)NS(=N)(=O)c1ccc(C(C)(C)O)s1)CCC2)C1CC1 (racemic) [Compound 51-2, (RS, SC)- and (SS, SC)-N-((5-(1-cyclopropylethyl)-2,3-dihydro-1H-inden-4-yl)carbamoyl)-5-(2-hydroxypropan-2-yl)thiophene-2-sulfonimidamide] | 5000 to 10000 nM |
| CC(C)c1cccc(C(C)C2CC2)c1NC(=O)NS(=N)(=O)c1cc(C(C)(C)O)co1 (racemic) [Compound 74-2, (RS, RC)- and (SS, RC)-N-((2-(1-cyclopropylethyl)-6-isopropylphenyl)carbamoyl)-4-(2-hydroxypropan-2-yl)furan-2-sulfonimidamide] | 1000 to 5000 nM |

Source: patent US11976054B2, “Amide derivative and preparation method therefore and use thereof in medicine” (Chengdu Baiyu Pharmaceutical Co., Ltd., priority 2019, dated 2024)
